Measured values as given in patent US8460867B2, “Methods of treating psychosis and schizophrenia based on polymorphisms in the CNTF gene” (Novartis AG, priority 2001, dated 2013).

B1: CNTF: Ciliary Neurotrophic Factor, survival factor for neuronal cell types, member of the interleukin-6 cytokine family (protein, UniProt P26441 1-200, looked up)
Ciliary neurotrophic factor: MAFTEHSPLTPHRRDLCSRSIWLARKIRSDLTALTESYVKHQGLNKNINLDSADGMPVASTDQWSELTEAERLQENLQAYRTFHVLLARLLEDQQVHFTPTEGDFHQAIHTLLLQVAAFAYQIEELMILLEYKIPRNEADGMPINVGDGGLFEKKLWGLKVLQELSQWTVRSIHDLRFISSHQTGIPARGSHYIANNKKM

Assays:
schizophrenic patients = test: Clinical trial of Iloperidone in schizophrenic patients, pharmacogenetic analysis by CNTF 103 G>A genotype; assay type: in vivo, human
From the text: In an effort to identify genetic factors that may associate with treatment response to Iloperidone, the relationship between a polymorphism in the CNTF (ciliary neurotrophic factor) gene (located on 11q12.2, the polymorphism being 103 G>A in GenBank sequence X55890 (Version 1), see PubMed: 9285965) and the clinical response to the antipsychotic Iloperidone in a clinical trial was investigated. This trial was a randomized, double-blind, placebo- and risperidone-controlled, multicenter study to evaluate the efficacy and safety of two non-overlapping dose ranges of lloperidone (12 or 16 mg/d and 20 or 24 mg/d and risperidone (6 or 8 mg/d) compared with placebo, given twice-daily (b.i.d) for 42 days to schizophrenic patients followed by a long-term treatment phase with lloperidone given once daily (q.d) at doses of 4, 8, 12, 16, or 24 mg/d for 46 weeks to patients with schizophrenia.
Pharmacogenetic analysis for candidate gene polymorphisms was conducted in Phase II of the clinical trial. It was determined whether the CNTF (ciliary neurotrophic factor) 103 G>A polymorphism (GenBank sequence X55890 (Version 1)) 103 G>A, (expressed protein alteration FS63 TER) was associated with any of the clinical parameters of efficacy studied in the course of the clinical trial and specifically changes in the BPRSA, Total PANNS, Positive PANNS, Negative PANNS and General PANNS scales.
A total of 207 unique blood samples were collected from the patients at the trial sites. The DNA was extracted by Covance (Geneva) using the PUREGENE™ DNA Isolation Kit (D-50K). The CNTF 103 G>A polymorphism (GenBank sequence X55890 (Version 1)) polymorphism was described by Takahashi, see, Takahashi et al. Nature Genet. 7: 79-84, 1994.
The probe sets for genotyping were designed and synthesized by Third Wave Technologies, Inc (Madison, Wis.). […]

ob/ob mice = conditions: systemic administration; cited from earlier work
pmn/pmn mice = conditions: also when degenerative alterations were already present; cited from earlier work
db/db mice = conditions: which lack a functional leptin receptor; cited from earlier work
[1] = test system: mice with diet-induced obesity; conditions: partially resistant to leptin; cited from earlier work

Row | Molecule | association of Total PANSS and BPRSA with the CNTF 103 G>A polymorphism (schizophrenic patients; 12-16 mg dose (Group A), analysis of variance within treatments, p<0.001) | response of the GG type versus the placebo (schizophrenic patients; 12-16 mg treatment group, GG type of the CNTF gene, p<0.001) | treatment response (BPRSA and Total PANNS scales), GG type versus non-GG type of the CNTF gene (schizophrenic patients; 12-16 mg treatment group, schizophrenic patients, 42 days b.i.d.) | induction of the tis-11 primary response gene in the arcuate nucleus (ob/ob mice) | motor function and morphologic symptoms of neural degeneration (pmn/pmn mice) | obesity-related phenotypes (db/db mice) | obesity-related phenotypes [1]
1 | COc1cc(C(C)=O)ccc1OCCCN1CCC(c2noc3cc(F)ccc23)CC1 [Iloperidone] | significantly associated | highly significant | responded significantly better than the non-GG type |  |  |  | 
2 | LEP: leptin (LEP) cytokine |  |  |  | rapid induction |  |  | 
3 | B1 |  |  |  | rapid induction | successfully improved motor function and reduced the morphologic symptoms of neural degeneration | reduced obesity-related phenotypes | reduced obesity-related phenotypes
